“And” between values parts separate entries of the source, which are not always exact repeats. Equal values may be shown once. Toxic doses and inconclusive results are not listed.
System: P388 leukemia ip, CD2F1 mice, survival T/C
Test: NCI In Vivo Anticancer Drug Screen. Data for tumor model P388 Leukemia (intraperitoneal) in CD2F1 (CDF1) mice
Conditions: endpoint: median survival time, higher = longer survival
In short: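 Mice carrying the transplanted tumor received test compound or vehicle. Survival was recorded in each group, and the value is the treated-group measurement divided by that of the vehicle-treated control group.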

[1] = dose: 50.0 mg/kg/injection, schedule: Q01DX005 (ip), vehicle: saline with Tween-80
[2] = dose: 60.0 mg/kg/injection, schedule: Q01DX005 (ip), vehicle: Klucel (hydroxypropylcellulose) (HPC)
[3] = dose: 100.0 mg/kg/injection, schedule: Q01DX005 (ip), vehicle: saline with Tween-80
[4] = dose: 200.0 mg/kg/injection, schedule: Q01DX005 (ip), vehicle: saline with Tween-80
[5] = dose: 60.0 mg/kg/injection, schedule: Q01DX005 (ip), vehicle: saline with Tween-80
[6] = dose: 50.0 mg/kg/injection, schedule: Q01DX009 (ip), vehicle: saline with Tween-80
[7] = dose: 100.0 mg/kg/injection, schedule: Q01DX009 (ip), vehicle: saline with Tween-80
[8] = dose: 200.0 mg/kg/injection, schedule: Q01DX009 (ip), vehicle: saline with Tween-80
[9] = dose: 400.0 mg/kg/injection, schedule: Q01DX009 (ip), vehicle: saline with Tween-80

CCCCC(S)CS (stereo not given)
T/C (dose: 12.5 mg/kg/injection, schedule: Q01DX005 (ip), vehicle: saline with Tween-80): 107 % of control | T/C (dose: 25.0 mg/kg/injection, schedule: Q01DX005 (ip), vehicle: saline with Tween-80): 103 % of control | T/C [1]: 107 % of control and 110 % of control

c1ccc(Cc2ncnc3nc[nH]c23)cc1
T/C (dose: 2.5 mg/kg/injection, schedule: Q01DX009 (ip), vehicle: saline with Tween-80): 111 % of control | T/C (dose: 5.0 mg/kg/injection, schedule: Q01DX009 (ip), vehicle: saline with Tween-80): 111 % of control | T/C (dose: 10.0 mg/kg/injection, schedule: Q01DX009 (ip), vehicle: saline with Tween-80): 111 % of control | T/C (dose: 20.0 mg/kg/injection, schedule: Q01DX009 (ip), vehicle: saline with Tween-80): 105 % of control and 107 % of control and 110 % of control | T/C (dose: 40.0 mg/kg/injection, schedule: Q01DX009 (ip), vehicle: saline with Tween-80): 98 % of control and 103 % of control | T/C (dose: 80.0 mg/kg/injection, schedule: Q01DX009 (ip), vehicle: saline with Tween-80): 110 % of control and 111 % of control and 91 % of control | T/C (dose: 160.0 mg/kg/injection, schedule: Q01DX009 (ip), vehicle: saline with Tween-80): 95 % of control

CCN(CC)c1ccc2c(cc1=O)[C@@H](NC(C)=O)CCc1cc(OC)c(OC)c(OC)c1-2
T/C (dose: 0.39 mg/kg/injection, schedule: Q01DX009 (ip), vehicle: Klucel (hydroxypropylcellulose) (HPC)): 103 % of control and 107 % of control and 120 % of control | T/C (dose: 3.13 mg/kg/injection, schedule: Q01DX009 (ip), vehicle: Klucel (hydroxypropylcellulose) (HPC)): 181 % of control

CCN(CC)c1c(C)c(-c2ccccc2)oc(=O)c1-c1ccccc1
T/C (dose: 50.0 mg/kg/injection, schedule: Q01DX009 (ip), vehicle: Klucel (hydroxypropylcellulose) (HPC)): 105 % of control | T/C (dose: 100.0 mg/kg/injection, schedule: Q01DX009 (ip), vehicle: Klucel (hydroxypropylcellulose) (HPC)): 100 % of control | T/C (dose: 200.0 mg/kg/injection, schedule: Q01DX009 (ip), vehicle: Klucel (hydroxypropylcellulose) (HPC)): 100 % of control

COc1cc(OC)c(NC(=O)C2=C(C)NC(C)=C(C(=O)Nc3cc(Cl)c(OC)cc3OC)C2c2cccc([N+](=O)[O-])c2)cc1Cl
T/C (dose: 15.0 mg/kg/injection, schedule: Q01DX005 (ip), vehicle: Klucel (hydroxypropylcellulose) (HPC)): 101 % of control | T/C (dose: 30.0 mg/kg/injection, schedule: Q01DX005 (ip), vehicle: Klucel (hydroxypropylcellulose) (HPC)): 100 % of control | T/C [2]: 101 % of control and 93 % of control

COC(=O)C1=CC(=O)N2CCN=C2S1
T/C [1]: 103 % of control | T/C [3]: 100 % of control | T/C [4]: 90 % of control

COc1ccc(C(C)c2cc(OC)c(OC)cc2OC)cc1 (stereo not given)
T/C [5]: 102 % of control | T/C (dose: 120.0 mg/kg/injection, schedule: Q01DX005 (ip), vehicle: saline with Tween-80): 102 % of control | T/C (dose: 240.0 mg/kg/injection, schedule: Q01DX005 (ip), vehicle: saline with Tween-80): 105 % of control

COC(=O)C1C(NC(C)(C)C)CCN1C(C)=O (stereo not given)
T/C (dose: 50.0 mg/kg/injection, schedule: Q01DX005 (ip), vehicle: saline): 89 % of control | T/C (dose: 100.0 mg/kg/injection, schedule: Q01DX005 (ip), vehicle: saline): 88 % of control | T/C (dose: 200.0 mg/kg/injection, schedule: Q01DX005 (ip), vehicle: saline): 89 % of control

[N-]=[N+]=NCC(O)COc1c2ccccc2nc2ccccc12 (stereo not given)
T/C (dose: 15.0 mg/kg/injection, schedule: Q01DX005 (ip), vehicle: saline with Tween-80): 95 % of control | T/C (dose: 30.0 mg/kg/injection, schedule: Q01DX005 (ip), vehicle: saline with Tween-80): 99 % of control | T/C [5]: 112 % of control

CC1CCN(SSc2nc3ccccc3s2)CC1
T/C [6]: 104 % of control and 116 % of control | T/C [7]: 107 % of control and 112 % of control | T/C [8]: 110 % of control and 118 % of control | T/C [9]: 114 % of control

O=C(C1=CCCCC1)c1ccc(-c2ccccc2)cc1
T/C [7]: 100 % of control | T/C [8]: 100 % of control | T/C [9]: 100 % of control

Fc1ccc(OCCC(Cn2ccnc2)c2ccc(Cl)cc2Cl)cc1 (stereo not given)
T/C (dose: 12.5 mg/kg/injection, schedule: Q01DX009 (ip), vehicle: saline with Tween-80): 106 % of control | T/C (dose: 25.0 mg/kg/injection, schedule: Q01DX009 (ip), vehicle: saline with Tween-80): 106 % of control | T/C [6]: 88 % of control and 94 % of control

C/C(=N/N=C(N)N)c1cnn(C(=N)N)c1C
T/C [2]: 99 % of control | T/C (dose: 120.0 mg/kg/injection, schedule: Q01DX005 (ip), vehicle: Klucel (hydroxypropylcellulose) (HPC)): 114 % of control

O=N[O-].O=N[O-].[Co].[NH-]CC[NH-].[NH-]CC[NH-]
T/C (dose: 6.25 mg/kg/injection, schedule: Q04DX003 (ip), vehicle: water): 98 % of control | T/C (dose: 12.5 mg/kg/injection, schedule: Q04DX003 (ip), vehicle: distilled water + Tween-80): 96 % of control | T/C (dose: 12.5 mg/kg/injection, schedule: Q04DX003 (ip), vehicle: water): 101 % of control | T/C (dose: 25.0 mg/kg/injection, schedule: Q04DX003 (ip), vehicle: water): 102 % of control | T/C (dose: 50.0 mg/kg/injection, schedule: Q04DX003 (ip), vehicle: distilled water + Tween-80): 99 % of control | T/C (dose: 50.0 mg/kg/injection, schedule: Q04DX003 (ip), vehicle: water): 96 % of control | T/C (dose: 100.0 mg/kg/injection, schedule: Q04DX003 (ip), vehicle: distilled water + Tween-80): 108 % of control

c1ccc(N2N=NC3CCOC32)cc1 (stereo not given)
T/C [1]: 94 % of control | T/C [3]: 102 % of control | T/C [4]: 106 % of control

CC(=O)Nc1ccc([Se](N)=O)cc1 (stereo not given)
T/C [1]: 89 % of control | T/C [3]: 103 % of control | T/C [4]: 111 % of control

Cn1c(=O)c2c(ncn2CCSc2ncnc3nc[nH]c23)n(C)c1=O
T/C (dose: 50.0 mg/kg/injection, schedule: Q01DX009 (ip), vehicle: saline): 97 % of control | T/C (dose: 100.0 mg/kg/injection, schedule: Q01DX009 (ip), vehicle: saline): 105 % of control | T/C (dose: 200.0 mg/kg/injection, schedule: Q01DX009 (ip), vehicle: saline): 114 % of control

COC1=CC(=O)C2CC=C(C)C3CC(=O)OC1C23C (stereo not given)
T/C (dose: 100.0 mg/kg/injection, schedule: Q04DX002 (ip), vehicle: Klucel (hydroxypropylcellulose) (HPC)): 100 % of control | T/C (dose: 200.0 mg/kg/injection, schedule: Q04DX002 (ip), vehicle: Klucel (hydroxypropylcellulose) (HPC)): 95 % of control | T/C (dose: 400.0 mg/kg/injection, schedule: Q04DX002 (ip), vehicle: Klucel (hydroxypropylcellulose) (HPC)): 98 % of control

CC(NC(=O)C(NC(=O)OCc1ccccc1)C(C)O)C(=O)OCc1ccccc1 (stereo not given)
T/C [1]: 101 % of control | T/C [3]: 92 % of control | T/C [4]: 100 % of control

OC1(CN2CCCCC2)CCCOCCCOCCCOCCCOCCCOCCC1
T/C [1]: 94 % of control | T/C [3]: 99 % of control | T/C [4]: 100 % of control

Cc1cc2c(=O)cc(-c3ccccc3Cl)oc2c(C#N)c1C
T/C (dose: 1.87 mg/kg/injection, schedule: Q01DX005 (ip), vehicle: Klucel (hydroxypropylcellulose) (HPC)): 95 % of control | T/C (dose: 3.75 mg/kg/injection, schedule: Q01DX005 (ip), vehicle: Klucel (hydroxypropylcellulose) (HPC)): 101 % of control | T/C (dose: 7.5 mg/kg/injection, schedule: Q01DX005 (ip), vehicle: Klucel (hydroxypropylcellulose) (HPC)): 117 % of control | T/C [2]: 86 % of control | T/C (dose: 240.0 mg/kg/injection, schedule: Q01DX005 (ip), vehicle: Klucel (hydroxypropylcellulose) (HPC)): 95 % of control

CCCCCCCCCCCCCCCC[N+](C)(CCO)Cc1ccccc1 (stereo not given)
T/C (dose: 6.25 mg/kg/injection, schedule: Q04DX002 (ip), vehicle: saline with Tween-80): 112 % of control | T/C (dose: 12.5 mg/kg/injection, schedule: Q04DX002 (ip), vehicle: saline with Tween-80): 116 % of control

O=c1oc(-c2cccc([N+](=O)[O-])c2)ns1
T/C (dose: 6.25 mg/kg/injection, schedule: Q01DX009 (ip), vehicle: Klucel (hydroxypropylcellulose) (HPC)): 101 % of control | T/C (dose: 12.5 mg/kg/injection, schedule: Q01DX009 (ip), vehicle: Klucel (hydroxypropylcellulose) (HPC)): 97 % of control | T/C (dose: 25.0 mg/kg/injection, schedule: Q01DX009 (ip), vehicle: Klucel (hydroxypropylcellulose) (HPC)): 109 % of control

CCOC(=O)N1CCN(C(=O)c2nc3ccccc3[nH]2)CC1
T/C (dose: 50.0 mg/kg/injection, schedule: Q01DX005 (ip), vehicle: Klucel (hydroxypropylcellulose) (HPC)): 99 % of control | T/C (dose: 100.0 mg/kg/injection, schedule: Q01DX005 (ip), vehicle: Klucel (hydroxypropylcellulose) (HPC)): 101 % of control | T/C (dose: 200.0 mg/kg/injection, schedule: Q01DX005 (ip), vehicle: Klucel (hydroxypropylcellulose) (HPC)): 95 % of control

From PubChem BioAssay AID330 (DTP/NCI, 2004)
